Structures are written as SMILES.

For 21 compounds, IC50 results are on record in ChEMBL document CHEMBL1138121 (Bioorg Med Chem Lett, 2006).

The experiment deals with T1, Glycogen phosphorylase, muscle form (Oryctolagus cuniculus, UniProt P00489).
T1 sequence (P00489 whole entry): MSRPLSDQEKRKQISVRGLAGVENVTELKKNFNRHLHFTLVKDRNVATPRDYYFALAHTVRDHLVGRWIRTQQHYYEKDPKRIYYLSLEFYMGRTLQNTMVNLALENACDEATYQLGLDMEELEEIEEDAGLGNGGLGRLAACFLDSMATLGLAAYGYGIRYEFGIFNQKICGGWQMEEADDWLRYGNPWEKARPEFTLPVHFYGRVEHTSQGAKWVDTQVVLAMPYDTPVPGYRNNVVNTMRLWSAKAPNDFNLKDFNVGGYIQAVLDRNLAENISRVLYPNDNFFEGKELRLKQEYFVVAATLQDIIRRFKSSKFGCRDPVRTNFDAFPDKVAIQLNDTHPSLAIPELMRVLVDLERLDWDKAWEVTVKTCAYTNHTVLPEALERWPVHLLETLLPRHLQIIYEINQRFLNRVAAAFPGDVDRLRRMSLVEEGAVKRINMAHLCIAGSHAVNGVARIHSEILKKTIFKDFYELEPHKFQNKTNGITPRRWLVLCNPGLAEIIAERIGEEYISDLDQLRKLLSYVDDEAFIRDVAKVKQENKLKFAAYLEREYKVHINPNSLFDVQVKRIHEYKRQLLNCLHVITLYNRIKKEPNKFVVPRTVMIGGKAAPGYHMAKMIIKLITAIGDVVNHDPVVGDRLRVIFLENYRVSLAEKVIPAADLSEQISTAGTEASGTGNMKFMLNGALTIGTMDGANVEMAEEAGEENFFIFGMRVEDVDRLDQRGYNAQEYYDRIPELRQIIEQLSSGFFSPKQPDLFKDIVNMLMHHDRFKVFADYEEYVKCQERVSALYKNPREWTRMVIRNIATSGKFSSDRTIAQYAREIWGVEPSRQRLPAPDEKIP
The experiment can be described thus: Inhibitory activity against rabbit muscle GPa. It counts as tissue-based, Muscle tissue.
On to `CC1(C)CC[C@]2(C(=O)OCCO)CC[C@]3(C)C(=CC[C@@H]4[C@@]5(C)C[C@@H](O)[C@H](O)C(C)(C)[C@@H]5CC[C@]43C)[C@@H]2C1`, for which the IC50 (usually the concentration that inhibits the measured activity by half) was determined as 153 µM.

Take `CC1(C)CC[C@]2(C(=O)OCc3ccccc3)CC[C@]3(C)C(=CC[C@@H]4[C@@]5(C)C[C@@H](O[Si](C)(C)C(C)(C)C)[C@@H](O)C(C)(C)[C@@H]5CC[C@]43C)[C@@H]2C1`: it took 580 µM to reach half-maximal inhibition (IC50).

Take `CC1(C)CC[C@]2(C(=O)OCCN3CCCCC3)CC[C@]3(C)C(=CC[C@@H]4[C@@]5(C)C[C@@H](O)[C@H](O)C(C)(C)[C@@H]5CC[C@]43C)[C@@H]2C1`: the IC50 is 31 µM.

Regarding `CC1(C)CC[C@]2(C(=O)OCCCCN3CCOCC3)CC[C@]3(C)C(=CC[C@@H]4[C@@]5(C)C[C@@H](O)[C@H](O)C(C)(C)[C@@H]5CC[C@]43C)[C@@H]2C1`, the IC50 is 121 µM.

On to `CCN(CC)CCCCOC(=O)[C@]12CCC(C)(C)C[C@H]1C1=CC[C@@H]3[C@@]4(C)C[C@@H](O)[C@H](O)C(C)(C)[C@@H]4CC[C@@]3(C)[C@]1(C)CC2`, for which the IC50 was found to be 62 µM.

The compound `CC1(C)CC[C@]2(C(=O)OCC(=O)O)CC[C@]3(C)C(=CC[C@@H]4[C@@]5(C)C[C@@H](O)[C@H](O)C(C)(C)[C@@H]5CC[C@]43C)[C@@H]2C1` showed an IC50 of 1650 µM. This IC50 lies about 27-fold higher than the previous one.

Regarding `CC1(C)CC[C@]2(C(=O)OCCN3CCOCC3)CC[C@]3(C)C(=CC[C@@H]4[C@@]5(C)C[C@@H](O)[C@H](O)C(C)(C)[C@@H]5CC[C@]43C)[C@@H]2C1`, the IC50 was 43 µM.

In turn, `CC(=O)O[C@@H]1C[C@]2(C)[C@H]3CC=C4[C@@H]5CC(C)(C)CC[C@]5(C(=O)OCc5ccccc5)CC[C@@]4(C)[C@]3(C)CC[C@H]2C(C)(C)C1=O` displayed an IC50 of 29 µM.

`COC(=O)[C@]12CCC(C)(C)C[C@H]1C1=CC[C@@H]3[C@@]4(C)C[C@@H](O)[C@H](O)C(C)(C)[C@@H]4CC[C@@]3(C)[C@]1(C)CC2` [MASLINIC ACID METHYL ESTER] showed an IC50 of 393 µM.

For the compound `CCOC(=O)COC(=O)[C@]12CCC(C)(C)C[C@H]1C1=CC[C@@H]3[C@@]4(C)C[C@@H](O)[C@H](O)C(C)(C)[C@@H]4CC[C@@]3(C)[C@]1(C)CC2`, the midpoint of inhibition, the IC50, lay at 19 µM.

For `CC1(C)CC[C@]2(C(=O)OCc3ccccc3)CC[C@]3(C)C(=CC[C@@H]4[C@@]5(C)C[C@@H](O)[C@@H](O)C(C)(C)[C@@H]5CC[C@]43C)[C@@H]2C1`, the IC50 came to 66 µM. Compared with the last compound, the IC50 is about 3.5-fold higher.

`CC1(C)CC[C@]2(C(=O)OCc3ccccc3)CC[C@]3(C)C(=CC[C@@H]4[C@@]5(C)C[C@@H](O[Si](C)(C)C(C)(C)C)[C@H](O)C(C)(C)[C@@H]5CC[C@]43C)[C@@H]2C1` came in with an IC50 of 1710 µM.

As for `CC(=O)O[C@@H]1C[C@]2(C)[C@H]3CC=C4[C@@H]5CC(C)(C)CC[C@]5(C(=O)OCc5ccccc5)CC[C@@]4(C)[C@]3(C)CC[C@H]2C(C)(C)[C@@H]1O`, 63 µM corresponded to half-maximal inhibition (IC50).

Take `CC1(C)CC[C@]2(C(=O)OCCCCBr)CC[C@]3(C)C(=CC[C@@H]4[C@@]5(C)C[C@@H](O)[C@H](O)C(C)(C)[C@@H]5CC[C@]43C)[C@@H]2C1`: the IC50 is 7 µM.

Compound `CC1(C)CC[C@]2(C(=O)OCCCCN3CCCCC3)CC[C@]3(C)C(=CC[C@@H]4[C@@]5(C)C[C@@H](O)[C@H](O)C(C)(C)[C@@H]5CC[C@]43C)[C@@H]2C1` yielded an IC50 of 580 µM.

For `CCN(CC)CCOC(=O)[C@]12CCC(C)(C)C[C@H]1C1=CC[C@@H]3[C@@]4(C)C[C@@H](O)[C@H](O)C(C)(C)[C@@H]4CC[C@@]3(C)[C@]1(C)CC2`, half-maximal inhibition (IC50) was put at 51 µM.

`CC1(C)CC[C@]2(C(=O)OCc3ccccc3)CC[C@]3(C)C(=CC[C@@H]4[C@@]5(C)C=C(O)C(=O)C(C)(C)[C@@H]5CC[C@]43C)[C@@H]2C1` registered an IC50 of 30 µM.

For `CC1(C)CC[C@]2(C(=O)OCn3cccn3)CC[C@]3(C)C(=CC[C@@H]4[C@@]5(C)C[C@@H](O)[C@H](O)C(C)(C)[C@@H]5CC[C@]43C)[C@@H]2C1`, it took 66 µM to reach half-maximal inhibition (IC50). Against the preceding compound, the IC50 is about 2.2-fold higher.

In the case of `CC1(C)CC[C@]2(C(=O)OCCBr)CC[C@]3(C)C(=CC[C@@H]4[C@@]5(C)C[C@@H](O)[C@H](O)C(C)(C)[C@@H]5CC[C@]43C)[C@@H]2C1`, half-maximal inhibition (IC50) was put at 50 µM.

In the case of `CC1(C)CC[C@]2(C(=O)OCc3ccccc3)CC[C@]3(C)C(=CC[C@@H]4[C@@]5(C)C[C@@H](O)C(=O)C(C)(C)[C@@H]5CC[C@]43C)[C@@H]2C1`, the IC50 was found to be 29 µM.

For the compound `CC(=O)O[C@@H]1C[C@]2(C)[C@H]3CC=C4[C@@H]5CC(C)(C)CC[C@]5(C(=O)OCc5ccccc5)CC[C@@]4(C)[C@]3(C)CC[C@H]2C(C)(C)[C@H]1O`, the midpoint of inhibition, the IC50, lay at 80 µM.
